Reference: BindingDB's records for doi:10.1016/j.ejmech.2020.112861 (Zhengzhou University, 2021)

Target: Bromodomain-containing protein 4 (Homo sapiens, UniProt O60885)
Test: Binding affinity to human BRD4 bromodomain1 by isothermal titration calorimetry

## Cc1noc(C)c1-c1ccc2c(c1)nc(CCc1ccccc1)n2CCN1CCOCC1
  Kd: 950 nM
